Consider four compounds from patent US5945440A, “Indolocarbazole imides and the use thereof” (priority 1992, dated 1999).

The conditions of data set [1]: literature / other filings; cited from earlier work.
In data set [2] the target is T1, MLC kinase (myosin light-chain kinase) (Gallus gallus, UniProt P11799).
T1 construct: MLC kinase was purified from chicken stomach; from tissue; host or cells: chicken stomach (gizzard smooth muscle)
In words: inhibition of MLC kinase, in vitro enzyme test (32P phosphate incorporation). It counts as biochemical, chicken (stomach).
Description: Inhibition of the enzyme MLC kinase (EC 3.6.1.3; kinase of the light myosin chain; myosin light-chain kinase).
The inhibition of MLC kinase was measured in an in vitro enzyme test.
The reaction was initiated by the addition of 1 nM MLC kinase. After incubation for 20 minutes at 30° C., the reaction was stopped with TCA and the samples then filtered off. The phosphate incorporation took place by means of Cerenkov counting of the filter.

The target in a further data set is protein kinase C. In words: inhibition of protein kinase C, enzyme test. It counts as biochemical. The settings on record: read-out: inhibition of the protein kinases, C-kinase IC50. How it is done: In order to ascertain whether it is a question of a selective inhibition of MLC kinase, the compounds were also investigated in other enzyme tests for protein kinase, including tests for protein kinase C. The results from the PKC test are also given in the following Table I. Furthermore, the Table contains selectivity factors which were calculated by the determination of the ratios of the IC50 values.

In data set [3] the test system is human tumour cells. In words: colony test, human tumour cells in soft agar (tumour types in general). It counts as cell-based. The settings on record: certain tumour types. Here is the method:
(§1) For this test, human tumour cells are kept as solid tumour by passage on the nude mouse. For the test, an individual cell suspension is prepared and the cells then plated out in dishes containing soft agar. Under these conditions, the tumour cells multiply and form colonies.

Data set [4] has as its system human tumour cells, colon. In words: colony formation of human tumour cells: colon. It is filed as cell-based. Here is the method:
as §1

The test system of data set [5] is human tumour cells, colorectal 1. In words: colony formation of human tumour cells: colorectal 1. It is filed as cell-based. Here is the method:
as §1

The test system of data set [6] is human tumour cells, gastric 1. In words: colony formation of human tumour cells: gastric 1. It is filed as cell-based. Here is the method:
as §1

The subject of data set [7] is human tumour cells, gastric 2. In words: colony formation of human tumour cells: gastric 2. It is filed as cell-based. How it is done: as §1
The test system of data set [8] is human tumour cells, lung (large cell). In words: colony formation of human tumour cells: lung (large cell). It is filed as cell-based. How it is done: as §1
Data set [9] deals with human tumour cells, lung (small cell 1). In words: colony formation of human tumour cells: lung (small cell 1). It counts as cell-based. Here is the method: as §1
The subject of data set [10] is human tumour cells, melanoma 1. In words: colony formation of human tumour cells: melanoma 1. It counts as cell-based. How it is done:
as §1

For data set [11], the system named is human tumour cells, melanoma 2. In words: colony formation of human tumour cells: melanoma 2. It counts as cell-based. How it is done:
as §1

Data set [12] has as its system human tumour cells, melanoma 3. The experiment in a line: colony formation of human tumour cells: melanoma 3. It counts as cell-based. Here is the method:
as §1

In data set [13] the test system is human tumour cells, ovarian 1. The experiment in a line: colony formation of human tumour cells: ovarian 1. It is filed as cell-based. Here is the method:
as §1

In data set [14] the test system is human tumour cells, ovarian 2. The experiment in a line: colony formation of human tumour cells: ovarian 2. It is filed as cell-based. Here is the method: as §1
The subject of data set [15] is human tumour cells, ovarian 3. In words: colony formation of human tumour cells: ovarian 3. It counts as cell-based. Here is the method: as §1
Data set [16] concerns human tumour cells, pancreas 1. The experiment in a line: colony formation of human tumour cells: pancreas 1. It counts as cell-based. Here is the method: as §1
In data set [17] the test system is human tumour cells, prostata 1. In words: colony formation of human tumour cells: prostata 1. It counts as cell-based. Here is the method:
as §1

Data set [18] has as its system HIV. In words: phorbol ester-induced HIV reactivation, viral protein p24 by ELISA. It counts as cell-based. The settings on record: Human immunodeficiency virus 1; U1 cells, PMA stimulation; average value ± SD; n = 3; read-out: inhibition of the HIV production IC50, p24 expression. How it is done: (§2) In the case of the establishment of this hypothesis, use was made of the promonocytic cell line U1.
(§3) Without stimulation, no formation of HIV can be measured in these cells but, after 15 minutes stimulation with the phorbol ester PMA, it results in a massive production of HIV.
(§4) Some of the PKC inhibitors according to the present invention were investigated in this model. As a measure for the HIV production, either with the help of an ELISA test there was determined the viral protein p24 or with the help of an indicator cell, there was measured the HIV-induced formation of syncytia (giant cells produced by the fusion of individual cells).

Data set [19] has as its system HIV. The experiment in a line: phorbol ester-induced HIV reactivation, HIV-induced syncytia formation with indicator cell. It counts as cell-based. The settings on record: Human immunodeficiency virus 1; U1 cells, PMA stimulation; average value; n = 2; read-out: inhibition of the HIV production IC50, syncytia formation. Here is the method: as §2, §3, §4
Data set [20] has as its system HIV. The experiment in a line: HIV production in PMA-stimulated promonocytic U1 cells (both methods). It is filed as cell-based. The settings on record: both test methods. Here is the method: as §2, §3, §4
Data set [21] deals with promonocytic cell line U1. The experiment in a line: control experiments for cytotoxic action in the HIV model. It counts as cell-based.
The subject of data set [22] is human tumour cells. The settings on record: general statement on the colony test; cited from earlier work.
The subject of the next data set is protein kinases. The settings on record: Bio/Technology, 1990, 8, 132-135; cited from earlier work.

Each structure is given as a SMILES string.

T1 sequence (P11799 935-1906): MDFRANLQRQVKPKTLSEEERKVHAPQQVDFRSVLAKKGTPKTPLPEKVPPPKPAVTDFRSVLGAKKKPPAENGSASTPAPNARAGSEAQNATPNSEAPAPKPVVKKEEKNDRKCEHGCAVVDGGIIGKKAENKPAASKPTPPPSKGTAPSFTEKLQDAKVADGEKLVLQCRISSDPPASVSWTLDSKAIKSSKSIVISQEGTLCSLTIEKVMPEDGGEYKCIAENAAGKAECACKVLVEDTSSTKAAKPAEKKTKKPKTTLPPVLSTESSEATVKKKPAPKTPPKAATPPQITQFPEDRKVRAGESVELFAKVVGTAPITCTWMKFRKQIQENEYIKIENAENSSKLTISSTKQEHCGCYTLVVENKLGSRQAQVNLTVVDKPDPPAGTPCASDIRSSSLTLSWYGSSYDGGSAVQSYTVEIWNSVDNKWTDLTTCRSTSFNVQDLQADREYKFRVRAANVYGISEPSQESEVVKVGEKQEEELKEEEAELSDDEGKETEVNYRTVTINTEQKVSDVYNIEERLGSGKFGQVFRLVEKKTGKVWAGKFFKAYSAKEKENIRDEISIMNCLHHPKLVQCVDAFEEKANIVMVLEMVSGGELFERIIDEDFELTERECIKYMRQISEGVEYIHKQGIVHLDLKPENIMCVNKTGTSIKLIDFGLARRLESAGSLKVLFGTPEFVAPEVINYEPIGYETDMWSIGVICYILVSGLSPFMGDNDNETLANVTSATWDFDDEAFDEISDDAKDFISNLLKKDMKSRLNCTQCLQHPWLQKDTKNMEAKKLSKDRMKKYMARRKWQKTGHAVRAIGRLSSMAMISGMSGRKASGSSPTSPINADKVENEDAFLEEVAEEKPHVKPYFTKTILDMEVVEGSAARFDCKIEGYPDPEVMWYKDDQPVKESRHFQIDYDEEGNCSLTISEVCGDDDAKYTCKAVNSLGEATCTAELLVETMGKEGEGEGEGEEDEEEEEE

As to `O=C1NC(=O)c2c1c1c3cccc(O)c3[nH]c1c1[nH]c3c(O)cccc3c21` [BE-13193C], the “anti-tumour action, in words” value in [1] was “antitumour action”.

`CN(C)CCCn1c2ccc(O)cc2c2c3c(c4c5cc(O)ccc5[nH]c4c21)C(=O)NC3=O` [Example 2c]: the IC50 was 6.1 nM in data set [2] (1 nM MLC kinase, 250 μM ATP, pH 7.2, 20 minutes at 30° C., read-out: inhibition of the protein kinases, MLC-kinase IC50); 14 nM on protein kinase C; 1700 nM in [4]; 6000 nM in [5]; 1200 nM in [6]; under 100 nM in data set [7]. Besides, the IC50 in data set [8] is under 100 nM; in data set [9], under 100 nM; in data set [10], 120 nM; in data set [11], under 100 nM; in [12], 210 nM; in [13] it was 200 nM. Besides, the IC50 in [14] was 2600 nM; in data set [15], under 100 nM; in [16], 1500 nM; in [17], 200 nM; with HIV [18] it was 36 ± 15 nM; in the data set with HIV [19], 29 nM. Besides, in [2] (selectivity factor calculated from the IC50 values), the “ratio of IC50 C-kinase/IC50 MLC-kinase” value is on record as 2.3. The “inhibition of tumour cell growth, in words” value with human tumour cells [3] was “the growth of the tumour cells can be inhibited depending upon the concentration”. Also, the inhibition at 10 µM was 94% in data set [4] (10^-5 M); 62% in data set [5] (10^-5 M); 99% in data set [6] (10^-5 M); 77% in data set [7] (10^-5 M); 100% in data set [8] (10^-5 M); 97% in [9] (10^-5 M). Moreover, the inhibition at 10 µM came to 89% in [10] (10^-5 M); 97% in [11] (10^-5 M); 73% in data set [12] (10^-5 M); 96% in data set [13] (10^-5 M); 75% in data set [14] (10^-5 M); 99% in data set [15] (10^-5 M). Also, the inhibition at 10 µM in data set [16] (10^-5 M) is 83%; in data set [17] (10^-5 M), 98%. The inhibition at 1 µM was found to be 37% in data set [4] (10^-6 M); 8% in data set [5] (10^-6 M); 47% in [6] (10^-6 M); 66% in data set [7] (10^-6 M); 100% in [8] (10^-6 M); 97% in [9] (10^-6 M). Besides, the inhibition at 1 µM in data set [10] (10^-6 M) stood at 81%; in data set [11] (10^-6 M), 99%; in [12] (10^-6 M), 76%; in data set [13] (10^-6 M), 75%; in [14] (10^-6 M), 33%; in data set [15] (10^-6 M) it was 94%. Also, the values for the inhibition at 1 µM in data set [16] (10^-6 M) and in data set [17] (10^-6 M) were 44% and 99%, respectively. Besides, the inhibition at 0.1 µM is 8% in [4] (10^-7 M); 0% in data set [5] (10^-7 M); 29% in data set [6] (10^-7 M); 65% in data set [7] (10^-7 M); 97% in [8] (10^-7 M); 82% in [9] (10^-7 M). The inhibition at 0.1 µM came out at 48% in data set [10] (10^-7 M); 90% in data set [11] (10^-7 M); 38% in data set [12] (10^-7 M); 40% in data set [13] (10^-7 M); 5% in data set [14] (10^-7 M); 74% in [15] (10^-7 M). For the same compound, the inhibition at 0.1 µM in [16] (10^-7 M) was 38%; in data set [17] (10^-7 M), 29%. Moreover, in the data set on HIV [20], the “anti-HIV action, in words” value is on record as “an anti-HIV action could be demonstrated”. For the same compound, the “cytotoxic action as cause of the anti-HIV action, in words” value in data set [21] is listed as “the anti-HIV action did not come about due to a cytotoxic action”.

`COc1cccc2c1C(=O)c1c(O)c3c(c(O)c1C2=O)C[C@@](O)(C(=O)CO)C[C@@H]3O[C@H]1C[C@H](N)[C@H](O)[C@H](C)O1` [adriamycin]: in the data set with human tumour cells [22], the “prevention of colony formation, in words” value is listed as “able to prevent this colony formation”.

On to `CO[C@H]1[C@H](O)[C@@H](O)[C@H](n2c3c(Cl)cccc3c3c4c(c5c6cccc(Cl)c6[nH]c5c32)C(=O)NC4=O)O[C@@H]1CO` [rebeccamycin], for which the “inhibition of protein kinases, in words” value in the data set on protein kinases is recorded as “do not inhibit protein kinases”. Further, the “anti-tumour action, in words” value in data set [1] is recorded as “anti-tumour action”.
